Experimental data from patent publication US9708318B2, “Bicyclic heterocycles as FGFR4 inhibitors” (Incyte Corporation, priority 2015, dated 2017).
Like-named read-outs stand apart in the source and are kept apart here.

How the values were obtained:
FGFR2 = FGFR2 (Homo sapiens (Human), UniProt P21802); test: FGFR Enzymatic Assay (FRET peptide phosphorylation), FGFR2; type: biochemical
Method: (§1) The inhibitor potency of the exemplified compounds was measured in an enzyme assay that measures peptide phosphorylation using FRET measurements to detect product formation. Inhibitors were serially diluted in DMSO and a volume of 0.5 μL was transferred to the wells of a 384-well plate.
(§2) The enzymes were purchased from Millipore or Invitrogen.
(§3) GraphPad prism3 was used to analyze the data.

FGFR4 = FGFR4 (Homo sapiens (Human), UniProt P22455); test: FGFR Enzymatic Assay (FRET peptide phosphorylation), FGFR4; type: biochemical; conditions: for FGFR1/FGFR4 IC50 ratio / FGFR2/FGFR4 IC50 ratio / FGFR3/FGFR4 IC50 ratio: FGFR4 selectivity
Chain of FGFR4 (P22455 22-802): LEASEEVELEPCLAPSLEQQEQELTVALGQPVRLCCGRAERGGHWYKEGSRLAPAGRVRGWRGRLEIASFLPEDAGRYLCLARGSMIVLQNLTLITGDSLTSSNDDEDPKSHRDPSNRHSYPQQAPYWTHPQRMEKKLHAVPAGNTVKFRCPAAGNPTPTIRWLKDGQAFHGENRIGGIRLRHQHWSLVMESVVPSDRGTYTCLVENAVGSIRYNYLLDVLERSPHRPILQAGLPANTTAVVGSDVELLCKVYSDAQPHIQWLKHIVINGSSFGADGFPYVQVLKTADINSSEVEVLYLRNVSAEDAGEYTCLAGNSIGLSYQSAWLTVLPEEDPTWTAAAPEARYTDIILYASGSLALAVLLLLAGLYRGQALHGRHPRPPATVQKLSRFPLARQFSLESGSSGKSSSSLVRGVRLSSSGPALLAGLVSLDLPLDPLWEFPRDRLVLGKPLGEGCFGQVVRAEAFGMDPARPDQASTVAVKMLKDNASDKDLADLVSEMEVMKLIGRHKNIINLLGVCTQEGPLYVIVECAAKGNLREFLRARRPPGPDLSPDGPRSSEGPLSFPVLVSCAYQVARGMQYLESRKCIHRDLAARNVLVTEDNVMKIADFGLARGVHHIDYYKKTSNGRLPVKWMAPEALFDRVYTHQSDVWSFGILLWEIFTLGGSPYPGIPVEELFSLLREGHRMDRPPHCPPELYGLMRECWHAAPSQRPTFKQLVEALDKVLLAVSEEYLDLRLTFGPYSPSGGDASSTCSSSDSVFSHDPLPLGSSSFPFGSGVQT
Method: as §1, §2, §3

FGFR1 = FGFR1 (Homo sapiens (Human), UniProt P11362); test: FGFR Enzymatic Assay (FRET peptide phosphorylation), FGFR1
Chain of FGFR1 (P11362 22-822): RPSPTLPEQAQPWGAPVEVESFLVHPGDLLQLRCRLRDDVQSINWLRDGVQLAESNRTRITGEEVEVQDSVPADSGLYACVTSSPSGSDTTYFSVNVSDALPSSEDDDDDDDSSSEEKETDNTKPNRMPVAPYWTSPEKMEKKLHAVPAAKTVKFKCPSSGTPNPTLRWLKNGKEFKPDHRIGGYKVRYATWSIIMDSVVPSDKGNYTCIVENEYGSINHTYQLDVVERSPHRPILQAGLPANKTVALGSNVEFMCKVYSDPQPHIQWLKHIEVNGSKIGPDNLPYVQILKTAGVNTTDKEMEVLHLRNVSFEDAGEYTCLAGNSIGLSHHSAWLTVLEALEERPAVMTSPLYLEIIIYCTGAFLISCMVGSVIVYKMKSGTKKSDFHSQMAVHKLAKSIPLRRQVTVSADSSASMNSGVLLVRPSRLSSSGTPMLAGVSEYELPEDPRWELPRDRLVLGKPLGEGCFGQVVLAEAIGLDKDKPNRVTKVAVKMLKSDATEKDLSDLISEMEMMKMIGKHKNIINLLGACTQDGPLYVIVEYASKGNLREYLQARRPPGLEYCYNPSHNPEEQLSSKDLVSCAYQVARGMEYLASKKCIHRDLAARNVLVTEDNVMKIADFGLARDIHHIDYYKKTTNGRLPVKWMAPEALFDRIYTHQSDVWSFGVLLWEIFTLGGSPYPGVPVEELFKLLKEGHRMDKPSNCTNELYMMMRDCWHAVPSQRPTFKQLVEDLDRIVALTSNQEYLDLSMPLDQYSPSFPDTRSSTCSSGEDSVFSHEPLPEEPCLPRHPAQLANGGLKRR

FGFR3 enzyme = FGFR3 enzyme (Homo sapiens (Human), UniProt P22607); test: FGFR Enzymatic Assay (FRET peptide phosphorylation), FGFR3; type: biochemical; conditions: for FGFR1/FGFR3 IC50 ratio / FGFR4/FGFR3 IC50 ratio: FGFR3 selectivity; for IC50: read-out: FGFR3 IC50
Chain of FGFR3 enzyme (P22607 23-806): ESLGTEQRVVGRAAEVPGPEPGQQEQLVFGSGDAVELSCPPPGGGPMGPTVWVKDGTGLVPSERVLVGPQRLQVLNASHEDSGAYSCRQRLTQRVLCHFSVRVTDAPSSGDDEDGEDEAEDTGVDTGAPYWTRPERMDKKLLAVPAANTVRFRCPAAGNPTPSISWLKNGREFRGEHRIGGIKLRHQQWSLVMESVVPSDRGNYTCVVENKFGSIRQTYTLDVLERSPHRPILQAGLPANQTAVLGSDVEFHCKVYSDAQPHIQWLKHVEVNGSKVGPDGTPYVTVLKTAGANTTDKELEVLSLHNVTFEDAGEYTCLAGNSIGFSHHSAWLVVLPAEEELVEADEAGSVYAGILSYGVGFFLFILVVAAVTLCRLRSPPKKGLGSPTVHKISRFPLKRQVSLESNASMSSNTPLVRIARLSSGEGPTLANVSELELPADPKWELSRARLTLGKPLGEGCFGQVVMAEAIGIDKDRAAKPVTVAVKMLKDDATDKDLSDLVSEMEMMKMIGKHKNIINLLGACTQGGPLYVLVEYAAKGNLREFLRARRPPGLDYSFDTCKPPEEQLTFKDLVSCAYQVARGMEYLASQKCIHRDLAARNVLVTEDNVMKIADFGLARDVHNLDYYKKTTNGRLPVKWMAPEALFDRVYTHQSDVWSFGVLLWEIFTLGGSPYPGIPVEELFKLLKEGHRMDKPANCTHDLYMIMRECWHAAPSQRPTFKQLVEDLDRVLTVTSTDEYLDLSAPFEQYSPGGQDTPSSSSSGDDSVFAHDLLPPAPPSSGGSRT
Method: as §1, §3

[1] = FGFR1 IC50 (nM), pre-incubated for 4 hours
[2] = pre-incubated for 5 to 10 minutes
[3] = FGFR1 IC50 (nM), pre-incubated for 5 to 10 minutes
[4] = read-out: FGFR1 IC50, pre-incubated for 4 hours

Chain of FGFR2 (P21802 22-821): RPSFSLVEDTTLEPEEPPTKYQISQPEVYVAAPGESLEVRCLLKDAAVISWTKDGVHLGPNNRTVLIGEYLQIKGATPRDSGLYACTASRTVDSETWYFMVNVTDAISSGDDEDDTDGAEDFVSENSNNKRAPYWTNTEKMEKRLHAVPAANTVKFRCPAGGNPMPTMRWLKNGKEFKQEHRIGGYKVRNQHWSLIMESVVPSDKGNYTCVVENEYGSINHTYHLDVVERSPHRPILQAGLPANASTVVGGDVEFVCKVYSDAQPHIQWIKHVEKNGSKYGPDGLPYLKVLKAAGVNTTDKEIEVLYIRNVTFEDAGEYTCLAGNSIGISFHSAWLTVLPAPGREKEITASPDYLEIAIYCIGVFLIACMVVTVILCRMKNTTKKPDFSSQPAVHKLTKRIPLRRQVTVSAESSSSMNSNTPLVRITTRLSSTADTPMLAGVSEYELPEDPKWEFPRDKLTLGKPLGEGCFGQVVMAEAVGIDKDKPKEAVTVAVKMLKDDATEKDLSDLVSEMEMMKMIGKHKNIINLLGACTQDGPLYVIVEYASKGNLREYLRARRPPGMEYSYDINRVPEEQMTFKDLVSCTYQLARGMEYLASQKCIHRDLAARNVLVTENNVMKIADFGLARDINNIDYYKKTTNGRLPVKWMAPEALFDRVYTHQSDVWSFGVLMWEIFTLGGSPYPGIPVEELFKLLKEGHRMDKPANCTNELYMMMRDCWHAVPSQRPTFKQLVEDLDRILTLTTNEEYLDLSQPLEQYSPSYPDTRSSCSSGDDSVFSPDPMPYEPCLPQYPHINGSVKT

Structure (SMILES) | IC50 (FGFR2; pre-incubated for 4 hours) [µM] | IC50 (FGFR4; pre-incubated for 4 hours) [µM] | IC50 (FGFR1; [1]) [nM] | FGFR1/FGFR3 IC50 ratio (FGFR3 enzyme; pre-incubated for 4 hours) | FGFR4/FGFR3 IC50 ratio (FGFR3 enzyme; pre-incubated for 4 hours) | IC50 (FGFR3 enzyme; pre-incubated for 4 hours) [µM] | IC50 (FGFR2; [2]) [µM] | IC50 (FGFR4; [2]) [µM] | IC50 (FGFR1; [3]) [nM] | IC50 (FGFR3 enzyme; [2]) [µM] | IC50 (FGFR1; [4]) [nM] | FGFR1/FGFR4 IC50 ratio (FGFR4; [2]) | FGFR2/FGFR4 IC50 ratio (FGFR4; [2]) | FGFR3/FGFR4 IC50 ratio (FGFR4; [2]) | FGFR1/FGFR4 IC50 ratio (FGFR4; pre-incubated for 4 hours) | FGFR2/FGFR4 IC50 ratio (FGFR4; pre-incubated for 4 hours) | FGFR3/FGFR4 IC50 ratio (FGFR4; pre-incubated for 4 hours) | IC50 (FGFR1; read-out: FGFR1 IC50, pre-incubated for 5 to 10 minutes) [nM]
COc1cc(OC)c(F)c(N2Cc3cnc(-c4cn(CCC5CCNCC5)nc4C)cc3C3(CC3)C2=O)c1F [Example 165, 2′-(2,6-difluoro-3,5-dimethoxyphenyl)-6′-(3-methyl-1-(2-(piperidin-4-yl)ethyl)-1H-pyrazol-4-yl)-1′H-spiro[cyclopropane-1,4′-[2,7]naphthyridin]-3′(2′H)-one] | < 0.01 | 0.01 to 0.03 | 10 to 30 | >3 | >3 | < 0.01 |  |  |  |  |  |  |  |  |  |  |  | 
COc1cc(OC)c(F)c(N2Cc3cnc(-c4cnn(CCN5CCOCC5)c4)cc3C3(CC3)C2=O)c1F [Example 157, 2′-(2,6-difluoro-3,5-dimethoxyphenyl)-6′-(1-(2-morpholinoethyl)-1H-pyrazol-4-yl)-1′H-spiro[cyclopropane-1,4′-[2,7]naphthyridin]-3′(2′H)-one] | < 0.01 | < 0.01 | 10 to 30 | >5 | >3 | < 0.01 |  |  |  |  |  |  |  |  |  |  |  | 
COc1ccc(N2C(=O)N(c3c(F)c(OC)cc(OC)c3F)Cc3cnc(-c4cn(C)nc4C)cc32)cc1 [Example 104, 3-(2,6-difluoro-3,5-dimethoxyphenyl)-7-(1,3-dimethyl-1H-pyrazol-4-yl)-1-(4-methoxyphenyl)-3,4-dihydropyrido[4,3-d]pyrimidin-2(1H)-one] | < 0.01 | 0.03 to 0.2 | 10 to 30 | >3 | >5 | < 0.01 |  |  |  |  |  |  |  |  |  |  |  | 
COc1cc(OC)c(F)c(N2Cc3cnc(-c4cn(C)nc4C)cc3N(Cc3cnn(CC4CC4)c3)C2=O)c1F [Example 126, 1-((1-(cyclopropylmethyl)-1H-pyrazol-4-yl)methyl)-3-(2,6-difluoro-3,5-dimethoxyphenyl)-7-(1,3-dimethyl-1H-pyrazol-4-yl)-3,4-dihydropyrido[4,3-d]pyrimidin-2(1H)-one] |  |  |  |  |  |  | < 0.01 | 0.03 to 0.2 | 10 to 30 | < 0.01 |  |  |  |  |  |  |  | 
CCN1C(=O)N(c2cc(OC)cc(C(=O)NC)c2F)Cc2cnc(-c3ccc(C4(C#N)CCC4)nc3)cc21 [Example 28, 3-(7-(6-(1-cyanocyclobutyl)pyridin-3-yl)-1-ethyl-2-oxo-1,2-dihydropyrido[4,3-d]pyrimidin-3(4H)-yl)-2-fluoro-5-methoxy-N-methylbenzamide] | 0.03 to 0.2 | > 0.2 |  |  |  | 0.03 to 0.2 |  |  |  |  | > 200 |  |  |  |  |  |  | 
CCn1cc(CN2C(=O)N(c3c(F)c(OC)cc(OC)c3F)Cc3cnc(-c4cn(C)nc4C)cc32)cn1 [Example 39, 3-(2,6-difluoro-3,5-dimethoxyphenyl)-7-(1,3-dimethyl-1H-pyrazol-4-yl)-1-((1-ethyl-1H-pyrazol-4-yl)methyl)-3,4-dihydropyrido[4,3-d]pyrimidin-2(1H)-one] | < 0.01 | < 0.01 | 10 to 30 | >10 | >10 | < 0.01 |  |  |  |  |  |  |  |  |  |  |  | 
CCN1C(=O)N(c2c(F)c(OC)cc(OC)c2F)Cc2cnc(-c3ccccc3)cc21 [Example 22, 3-(2,6-difluoro-3,5-dimethoxyphenyl)-1-ethyl-7-phenyl-3,4-dihydropyrido[4,3-d]pyrimidin-2(1H)-one] | 0.01 to 0.03 | 0.01 to 0.03 | 30 to 200 | >5 |  | 0.01 to 0.03 |  |  |  |  |  |  |  |  |  |  |  | 
COc1cc(OC)c(F)c(N2Cc3cnc(-c4cn(C)nc4C)cc3N(Cc3cnn(C)c3)C2=O)c1F [Example 72, 3-(2,6-difluoro-3,5-dimethoxyphenyl)-7-(1,3-dimethyl-1H-pyrazol-4-yl)-1-((1-methyl-1H-pyrazol-4-yl)methyl)-3,4-dihydropyrido[4,3-d]pyrimidin-2(1H)-one] | < 0.01 | < 0.01 |  | >5 | >10 | < 0.01 |  |  |  |  | < 10 |  |  |  |  |  |  | 
COc1cc(OC)c(F)c(N2Cc3cnc(-c4cncc(CN5CCOCC5)c4)cc3C3(CC3)C2=O)c1F [Example 16, 2′-(2,6-difluoro-3,5-dimethoxyphenyl)-6′-(5-(morpholinomethyl)pyridin-3-yl)-1′H-spiro[cyclopropane-1,4′-[2,7]naphthyridin]-3′(2′H)-one] | 0.03 to 0.2 | < 0.01 |  | >1 |  | 0.03 to 0.2 | 0.03 to 0.2 | < 0.01 |  | 0.03 to 0.2 | > 200 | >25 | >10 | >10 | >50 | >25 | >10 | > 200
COc1cc(OC)c(F)c(N2Cc3cnc(-c4nn(C)cc4C#N)cc3C3(CC3)C2=O)c1F [Example 172, 3-(2′-(2,6-difluoro-3,5-dimethoxyphenyl)-3′-oxo-2′,3′-dihydro-1′H-spiro[cyclopropane-1,4′-[2,7]naphthyridine]-6′-yl)-1-methyl-1H-pyrazole-4-carbonitrile] | > 0.2 | 0.01 to 0.03 |  |  |  | > 0.2 |  |  |  |  | > 200 |  |  |  | >50 | >25 | >10 | 
CCN1C(=O)N(c2c(F)c(OC)cc(OC)c2F)Cc2cnc(-c3ccc(C(=O)NC4CC4)nc3)cc21 [Example 176, N-cyclopropyl-5-(3-(2,6-difluoro-3,5-dimethoxyphenyl)-1-ethyl-2-oxo-1,2,3,4-tetrahydropyrido[4,3-d]pyrimidin-7-yl)picolinamide] | < 0.01 | 0.01 to 0.03 | 10 to 30 | >10 | >5 | < 0.01 |  |  |  |  |  |  |  |  |  |  |  | 
COc1cc(OC)c(F)c(N2Cc3cnc(-c4cnn(CCN5CCC(OC)C5)c4)cc3C3(CC3)C2=O)c1F (centres unmarked) [Example 161, 2′-(2,6-difluoro-3,5-dimethoxyphenyl)-6′-(1-(2-(3-methoxypyrrolidin-1-yl)ethyl)-1H-pyrazol-4-yl)-1′H-spiro[cyclopropane-1,4′-[2,7]naphthyridin]-3′(2′H)-one] | < 0.01 | 0.01 to 0.03 | 10 to 30 | >5 | >3 | < 0.01 |  |  |  |  |  |  |  |  |  |  |  | 
COc1cc(OC)c(F)c(N2Cc3cnc(-c4cn(C)nc4C)cc3N(c3cncc(C)n3)C2=O)c1F [Example 87, 3-(2,6-difluoro-3,5-dimethoxyphenyl)-7-(1,3-dimethyl-1H-pyrazol-4-yl)-1-(6-methylpyrazin-2-yl)-3,4-dihydropyrido[4,3-d]pyrimidin-2(1H)-one] | < 0.01 | 0.03 to 0.2 | 30 to 200 | >5 | >10 | < 0.01 |  |  |  |  |  |  |  |  |  |  |  | 
COc1cc(OC)c(F)c(N2Cc3cnc(-c4cn(C)nc4C)cc3N(Cc3cnn(CC#N)c3)C2=O)c1F [Example 125, 2-(4-((3-(2,6-difluoro-3,5-dimethoxyphenyl)-7-(1,3-dimethyl-1H-pyrazol-4-yl)-2-oxo-3,4-dihydropyrido[4,3-d]pyrimidin-1(2H)-yl)methyl)-1H-pyrazol-1-yl)acetonitrile] | < 0.01 | 0.03 to 0.2 | 30 to 200 | >5 | >5 | 0.01 to 0.03 |  |  |  |  |  |  |  |  |  |  |  | 
COc1cc(OC)c(F)c(N2Cc3cnc(-c4cn(C)nc4C)cc3N(c3ccc4nc(C)oc4c3)C2=O)c1F [Example 75, 3-(2,6-difluoro-3,5-dimethoxyphenyl)-7-(1,3-dimethyl-1H-pyrazol-4-yl)-1-(2-methylbenzo[d]oxazol-6-yl)-3,4-dihydropyrido[4,3-d]pyrimidin-2(1H)-one] | 0.03 to 0.2 | 0.03 to 0.2 | 30 to 200 | >5 | >3 | 0.01 to 0.03 |  |  |  |  |  |  |  |  |  |  |  | 
COc1cc(OC)c(F)c(N2Cc3cnc(-c4cncc(N)c4)cc3C3(CC3)C2=O)c1F [Example 4, 6′-(5-aminopyridin-3-yl)-2′-(2,6-difluoro-3,5-dimethoxyphenyl)-1′H-spiro[cyclopropane-1,4′-[2,7]naphthyridin]-3′(2′H)-one] | 0.03 to 0.2 | < 0.01 | 30 to 200 | >1 |  | 0.03 to 0.2 | 0.01 to 0.03 | < 0.01 | 30 to 200 | 0.01 to 0.03 |  | >10 | >10 | >5 | >25 | >10 | >10 | 
COc1cc(OC)c(F)c(N2Cc3cnc(-c4cn(C)nc4C)cc3N(c3ccc(C#N)cc3)C2=O)c1F [Example 44, 4-(3-(2,6-difluoro-3,5-dimethoxyphenyl)-7-(1,3-dimethyl-1H-pyrazol-4-yl)-2-oxo-3,4-dihydropyrido[4,3-d]pyrimidin-1(2H)-yl)benzonitrile] | 0.01 to 0.03 | 0.03 to 0.2 | 30 to 200 | >10 | >10 | < 0.01 |  |  |  |  |  |  |  |  |  |  |  | 
